Assays:
[1] = Solution stability, Example A (pH 7.4 phosphate buffer/MeOH, LC/MS); type: physicochemical
Method: The following comparative procedures were used.
A 1.05 mg/mL stock solution (5 mL) of Ex. 45 in MeOH was prepared. From the stock solution was taken out 1.25 mL and diluted to 25 mL with the addition of 23.75 mL of 10 mM phosphate buffer (pH 7.4)/MeOH (70/30 v/v). This new solution was split into three. One solution was incubated at 4° C., another incubated at 25° C. and the third incubated at 40° C. Each solution was analyzed by LC/MS after day 1, day 2 and day 6 and compared to a standard calibration curve for Ex. 45.
In the following study, the solution stability of the compound of Example 45 was measured and compared to that of Compound Z. The compound of Example 45 is an iminothiadiazine dioxide compound of the invention. Compound Z is the corresponding iminopyrimidinone compound. The structures of the compound of Example 45 and of Compound Z are shown below. Studies were performed in aqueous pH 7.4 buffer containing methanol at 4° C., 25° C. and 40° C.

[2] = Solution stability, Example B (50 mM pH 7.4 phosphate buffer, 25° C., LC/MS); type: physicochemical
Method: Stock solutions of the tested compounds were prepared by dissolving about 3 mg of each compound in 3 mL of acetonitrile. Standards for test compounds were prepared by diluting 1 mL of the stock solution with an additional 4 mL of acetonitrile. These standards were stored at 4° C. Samples were prepared by diluting 1 mL of the stock solution with 4 mL of 50 mM pH 7.4 phosphate buffer. These samples were stored at 25° C. in the absence of light. Standards and samples were analyzed by LC/MS initially and at day 1, day 4, and day 6.
Mobile phase A: 10 mM pH 5 ammonium acetate buffer:methanol (90:10)
Mobile phase B: 10 mM pH 5 ammonium acetate buffer:methanol (10:90)
Column: Zorbax SB-Phenyl 4.6×50 mm, 1.8 μm
Column temperature: 40° C.
Detectors: UV at 220 nm and 236 nm
MS, ES ionization, positive mode, for identification only at final time point.
The terms reported in the tables below have the following meanings:
Area % is the integration of peak from HPLC as reported by Waters Empower II software.
RRT is the relative retention time of new product compared to the standard of the test compound.
ND stands for no peak detected by the UV detector.
* stands for no ion detected by the mass spectrometer.
In the following study, the solution stability of the compound of Example 47 was measured and compared to that of Compound Y. The compound of Example 47 is an iminothiadiazine dioxide compound of the invention. Compound Y is the corresponding iminopyrimidinone compound. The structures of the compound of Example 47 and of Compound Y are shown below. Studies were performed in pH 7.4 buffer at 25° C.

[3] = Standard (acetonitrile, stored at 4° C.)

Assay (Area %), class symbol ([1]; pH 7.4, 4° C., 2 days) | Assay (Area %), class symbol ([1]; pH 7.4, 4° C., 6 days) | Assay (Area %), class symbol ([1]; pH 7.4, 4° C., time not given) | Assay (Area %), class symbol ([1]; pH 7.4, 25° C., 2 days) | Assay (Area %), class symbol ([1]; pH 7.4, 25° C., 6 days) | Assay (Area %), class symbol ([1]; pH 7.4, 25° C., time not given) | Assay (Area %), class symbol ([1]; pH 7.4, 40° C., 2 days) | Assay (Area %), class symbol ([1]; pH 7.4, 40° C., 6 days) | Assay (Area %), class symbol ([1]; pH 7.4, 40° C., time not given) | Area %, Day 1; compound peak (RRT 1.00) ([2]; Sample at pH 7.4, 25° C.) [Area %] | Area %, Day 4; compound peak (RRT 1.00) ([2]; Sample at pH 7.4, 25° C.) [Area %] | Area %, Day 6; compound peak (RRT 1.00) ([2]; Sample at pH 7.4, 25° C.) [Area %] | Area %, Initial; compound peak (RRT 1.00) ([2]; Sample at pH 7.4, 25° C.) [Area %] | Area %, Day 1; compound peak (RRT 1.00) [2, 3] [Area %] | Area %, Day 4; compound peak (RRT 1.00) [2, 3] [Area %] | Area %, Day 6; compound peak (RRT 1.00) [2, 3] [Area %] | Area %, Initial; compound peak (RRT 1.00) [2, 3] [Area %] | Structure (SMILES)
— ((—) stands for >20% degradation) | — ((—) stands for >20% degradation) | — ((—) stands for >20% degradation) | — ((—) stands for >20% degradation) | — ((—) stands for >20% degradation) | — ((—) stands for >20% degradation) | — ((—) stands for >20% degradation) | — ((—) stands for >20% degradation) | — ((—) stands for >20% degradation) |  |  |  |  |  |  |  |  | CN1C(=N)N[C@](C)(c2cc(-c3cccc(C#N)c3)cs2)CC1=O [Compound Z]
 |  |  |  |  |  |  |  | — ((—) stands for >20% degradation) |  |  |  |  |  |  |  |  | CN1C(=N)N[C@](C)(c2cc(-c3cccc(C#N)c3)cs2)CS1(=O)=O [Example 45]
 |  |  |  |  |  |  |  |  | 98.56 | 98.53 | 98.53 | 98.55 | 98.55 | 98.52 | 98.52 | 98.53 | CC#Cc1cncc(-c2csc([C@]3(C)CS(=O)(=O)N(C)C(=N)N3)c2)c1 [Example 47]

Source: patent US9687494B2, “Iminothiadiazine dioxide compounds as BACE inhibitors, compositions, and their use” (Merck Sharp & Dohme Corp., priority 2009, dated 2017)
